According to the NIST ThermoML archive (doi:10.1016/j.jct.2016.06.001):
± gives the expanded uncertainty stated by the source.

Details: Liquid, Frequency=8 MHz, Pulse-echo method

CCC(C)O (configuration not stated) [butan-2-ol]
speed of sound (253.15 K, 100 kPa): 1374.6 ± 0.7 m/s | speed of sound (253.15 K, 5155 kPa): 1400.3 ± 0.71 m/s | speed of sound (253.15 K, 10194 kPa): 1424.8 ± 0.72 m/s | speed of sound (253.15 K, 15178 kPa): 1448.1 ± 0.72 m/s | speed of sound (253.15 K, 20139 kPa): 1470.5 ± 0.73 m/s | speed of sound (253.15 K, 25051 kPa): 1491.9 ± 0.74 m/s | speed of sound (253.15 K, 30449 kPa): 1514.4 ± 0.75 m/s | speed of sound (273.15 K, 100 kPa): 1301.2 ± 0.67 m/s | speed of sound (273.15 K, 5150 kPa): 1329.2 ± 0.68 m/s | speed of sound (273.15 K, 10187 kPa): 1355.8 ± 0.69 m/s | speed of sound (273.15 K, 15226 kPa): 1381.1 ± 0.7 m/s | speed of sound (273.15 K, 20096 kPa): 1404.6 ± 0.71 m/s | speed of sound (273.15 K, 25052 kPa): 1427.7 ± 0.72 m/s | speed of sound (273.15 K, 30040 kPa): 1450 ± 0.72 m/s | speed of sound (293.15 K, 102 kPa): 1229.1 ± 0.64 m/s | speed of sound (293.15 K, 5048 kPa): 1258.9 ± 0.65 m/s | speed of sound (293.15 K, 10078 kPa): 1287.7 ± 0.66 m/s | speed of sound (293.15 K, 15045 kPa): 1314.6 ± 0.67 m/s | speed of sound (293.15 K, 20093 kPa): 1340.9 ± 0.68 m/s | speed of sound (293.15 K, 25164 kPa): 1366 ± 0.69 m/s | speed of sound (293.15 K, 29995 kPa): 1389 ± 0.7 m/s | speed of sound (313.15 K, 100 kPa): 1156.3 ± 0.61 m/s | speed of sound (313.15 K, 5081 kPa): 1189.2 ± 0.63 m/s | speed of sound (313.15 K, 10051 kPa): 1220 ± 0.64 m/s | speed of sound (313.15 K, 15034 kPa): 1249.2 ± 0.65 m/s | speed of sound (313.15 K, 20050 kPa): 1277.2 ± 0.66 m/s | speed of sound (313.15 K, 25148 kPa): 1304.3 ± 0.67 m/s | speed of sound (313.15 K, 30041 kPa): 1329.3 ± 0.68 m/s | speed of sound (333.15 K, 101 kPa): 1081.4 ± 0.59 m/s | speed of sound (333.15 K, 5111 kPa): 1117.8 ± 0.6 m/s | speed of sound (333.15 K, 10069 kPa): 1151.4 ± 0.61 m/s | speed of sound (333.15 K, 15039 kPa): 1183 ± 0.62 m/s | speed of sound (333.15 K, 20109 kPa): 1213.5 ± 0.64 m/s | speed of sound (333.15 K, 25122 kPa): 1242.1 ± 0.65 m/s | speed of sound (333.15 K, 30086 kPa): 1269.2 ± 0.66 m/s | speed of sound (353.15 K, 119 kPa): 1003.7 ± 0.56 m/s | speed of sound (353.15 K, 5050 kPa): 1043.6 ± 0.57 m/s | speed of sound (353.15 K, 10149 kPa): 1081.5 ± 0.59 m/s | speed of sound (353.15 K, 15213 kPa): 1116.5 ± 0.6 m/s | speed of sound (353.15 K, 20040 kPa): 1147.9 ± 0.61 m/s | speed of sound (353.15 K, 25218 kPa): 1179.7 ± 0.62 m/s | speed of sound (353.15 K, 30032 kPa): 1207.7 ± 0.63 m/s

OCCCO [propan-1,3-diol]
speed of sound (293.15 K, 100 kPa): 1635.2 ± 1.4 m/s | speed of sound (293.15 K, 5030 kPa): 1650 ± 1.4 m/s | speed of sound (293.15 K, 10062 kPa): 1664.6 ± 1.4 m/s | speed of sound (293.15 K, 15066 kPa): 1678.9 ± 1.4 m/s | speed of sound (293.15 K, 20096 kPa): 1692.9 ± 1.4 m/s | speed of sound (293.15 K, 24997 kPa): 1706.3 ± 1.4 m/s | speed of sound (293.15 K, 30029 kPa): 1719.9 ± 1.4 m/s | speed of sound (313.15 K, 99 kPa): 1589.5 ± 1.4 m/s | speed of sound (313.15 K, 5048 kPa): 1605.1 ± 1.4 m/s | speed of sound (313.15 K, 10031 kPa): 1620.3 ± 1.4 m/s | speed of sound (313.15 K, 15138 kPa): 1635.4 ± 1.4 m/s | speed of sound (313.15 K, 20064 kPa): 1649.8 ± 1.4 m/s | speed of sound (313.15 K, 25191 kPa): 1664.4 ± 1.4 m/s | speed of sound (313.15 K, 30167 kPa): 1678.3 ± 1.4 m/s | speed of sound (333.15 K, 100 kPa): 1544.1 ± 1.3 m/s | speed of sound (333.15 K, 5058 kPa): 1560.3 ± 1.3 m/s | speed of sound (333.15 K, 10054 kPa): 1576.2 ± 1.3 m/s | speed of sound (333.15 K, 15024 kPa): 1591.7 ± 1.4 m/s | speed of sound (333.15 K, 20153 kPa): 1607.2 ± 1.4 m/s | speed of sound (333.15 K, 25135 kPa): 1622 ± 1.4 m/s | speed of sound (333.15 K, 30136 kPa): 1636.6 ± 1.4 m/s | speed of sound (353.15 K, 101 kPa): 1497.6 ± 1.3 m/s | speed of sound (353.15 K, 5038 kPa): 1514.6 ± 1.3 m/s | speed of sound (353.15 K, 10023 kPa): 1531.3 ± 1.3 m/s | speed of sound (353.15 K, 15089 kPa): 1547.8 ± 1.3 m/s | speed of sound (353.15 K, 20158 kPa): 1563.9 ± 1.3 m/s | speed of sound (353.15 K, 25109 kPa): 1579.3 ± 1.3 m/s | speed of sound (353.15 K, 30076 kPa): 1594.4 ± 1.4 m/s

CC(C)O [propan-2-ol]
speed of sound (253.15 K, 99 kPa): 1301 ± 0.67 m/s | speed of sound (253.15 K, 5138 kPa): 1328.8 ± 0.68 m/s | speed of sound (253.15 K, 10106 kPa): 1354.9 ± 0.69 m/s | speed of sound (253.15 K, 15136 kPa): 1380 ± 0.7 m/s | speed of sound (253.15 K, 20143 kPa): 1404 ± 0.71 m/s | speed of sound (253.15 K, 25229 kPa): 1427.5 ± 0.72 m/s | speed of sound (253.15 K, 30036 kPa): 1448.9 ± 0.72 m/s | speed of sound (273.15 K, 100 kPa): 1227.9 ± 0.64 m/s | speed of sound (273.15 K, 5275 kPa): 1258.8 ± 0.65 m/s | speed of sound (273.15 K, 10173 kPa): 1286.4 ± 0.66 m/s | speed of sound (273.15 K, 15164 kPa): 1313.3 ± 0.67 m/s | speed of sound (273.15 K, 20289 kPa): 1339.6 ± 0.68 m/s | speed of sound (273.15 K, 25102 kPa): 1363.3 ± 0.69 m/s | speed of sound (273.15 K, 30264 kPa): 1387.7 ± 0.7 m/s | speed of sound (293.15 K, 100 kPa): 1157.4 ± 0.61 m/s | speed of sound (293.15 K, 5085 kPa): 1189.7 ± 0.63 m/s | speed of sound (293.15 K, 10183 kPa): 1220.8 ± 0.64 m/s | speed of sound (293.15 K, 15273 kPa): 1250.2 ± 0.65 m/s | speed of sound (293.15 K, 20239 kPa): 1277.4 ± 0.66 m/s | speed of sound (293.15 K, 25220 kPa): 1303.6 ± 0.67 m/s | speed of sound (293.15 K, 30278 kPa): 1328.9 ± 0.68 m/s | speed of sound (313.15 K, 100 kPa): 1087.2 ± 0.59 m/s | speed of sound (313.15 K, 5177 kPa): 1123.1 ± 0.6 m/s | speed of sound (313.15 K, 10104 kPa): 1155.7 ± 0.61 m/s | speed of sound (313.15 K, 15187 kPa): 1187.5 ± 0.63 m/s | speed of sound (313.15 K, 20126 kPa): 1216.6 ± 0.64 m/s | speed of sound (313.15 K, 25138 kPa): 1244.7 ± 0.65 m/s | speed of sound (313.15 K, 30110 kPa): 1271.1 ± 0.66 m/s | speed of sound (333.15 K, 100 kPa): 1016 ± 0.56 m/s | speed of sound (333.15 K, 5048 kPa): 1054.5 ± 0.58 m/s | speed of sound (333.15 K, 10038 kPa): 1090.6 ± 0.59 m/s | speed of sound (333.15 K, 15065 kPa): 1124.6 ± 0.6 m/s | speed of sound (333.15 K, 20102 kPa): 1156.5 ± 0.61 m/s | speed of sound (333.15 K, 25093 kPa): 1186.4 ± 0.62 m/s | speed of sound (333.15 K, 30014 kPa): 1214.4 ± 0.64 m/s | speed of sound (353.15 K, 100 kPa): 940.5 ± 0.53 m/s | speed of sound (353.15 K, 5080 kPa): 983.88 ± 0.55 m/s | speed of sound (353.15 K, 10091 kPa): 1023.9 ± 0.56 m/s | speed of sound (353.15 K, 15114 kPa): 1060.8 ± 0.58 m/s | speed of sound (353.15 K, 20132 kPa): 1095.3 ± 0.59 m/s | speed of sound (353.15 K, 25164 kPa): 1127.6 ± 0.6 m/s | speed of sound (353.15 K, 30380 kPa): 1159.2 ± 0.61 m/s
